The source of these data is PubChem BioAssay AID602331 (Johns Hopkins Ion Channel Center, 2012).

The source made the active and inactive calls.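 Rule for the calls: active = compound boosting capsaicin-evoked TRPV1 current more than 1.5 times over the capsaicin response; inactive = the rest.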

For this assay, the target named is Transient receptor potential cation channel subfamily V member 1 (Homo sapiens) (UniProt Q8NER1). As to the kind of experiment: capsaicin-evoked TRPV1 current potentiation – QPatch automated patch clamp, HEK293 cells, confirmation (AID 602331). As to conditions: +100 mV, at 10 µM, hits give high values.
Sequence of Transient receptor potential cation channel subfamily V member 1 (Homo sapiens) (Q8NER1 whole entry, looked up): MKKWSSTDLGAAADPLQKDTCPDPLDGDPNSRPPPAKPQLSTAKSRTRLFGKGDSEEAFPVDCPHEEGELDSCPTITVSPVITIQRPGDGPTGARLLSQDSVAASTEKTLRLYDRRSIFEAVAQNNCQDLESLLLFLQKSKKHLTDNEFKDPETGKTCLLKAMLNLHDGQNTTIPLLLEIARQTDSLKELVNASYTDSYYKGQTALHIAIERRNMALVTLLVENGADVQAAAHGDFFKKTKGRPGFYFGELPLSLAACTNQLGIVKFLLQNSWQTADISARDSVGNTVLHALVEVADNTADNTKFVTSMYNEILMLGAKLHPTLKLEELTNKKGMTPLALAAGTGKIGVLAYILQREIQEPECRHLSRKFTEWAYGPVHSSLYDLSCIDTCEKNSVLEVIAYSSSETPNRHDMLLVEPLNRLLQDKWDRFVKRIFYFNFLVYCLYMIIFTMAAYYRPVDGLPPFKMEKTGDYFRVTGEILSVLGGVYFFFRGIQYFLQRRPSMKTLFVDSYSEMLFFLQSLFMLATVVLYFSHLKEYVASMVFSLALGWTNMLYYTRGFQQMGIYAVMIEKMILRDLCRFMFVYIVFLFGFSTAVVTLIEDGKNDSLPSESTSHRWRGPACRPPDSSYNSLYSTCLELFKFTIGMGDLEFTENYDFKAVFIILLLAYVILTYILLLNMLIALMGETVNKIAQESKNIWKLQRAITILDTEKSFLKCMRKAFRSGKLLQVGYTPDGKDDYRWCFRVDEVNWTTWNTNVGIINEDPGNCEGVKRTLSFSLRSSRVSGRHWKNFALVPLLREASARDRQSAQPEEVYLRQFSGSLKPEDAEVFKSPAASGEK
As to `O=C(CNc1cccc(S(=O)(=O)N2CCOCC2)c1)Nc1cccc(Br)c1`, the fold potentiation is 0.827 (inactive). As for `O=C(COC(=O)c1ccc2c(c1)C(=O)N(Cc1ccncc1)C2=O)Nc1ccccc1[N+](=O)[O-]`, the fold potentiation is 3.23. For the compound `CC(C)C(=O)Nc1ccc(C(=O)CN2C(=O)NC3(CCOc4ccccc43)C2=O)cc1` (configuration not stated), the fold potentiation was 0.776 (inactive). On to `CC1=C(C)/C(=N\OS(=O)(=O)c2ccc(C)cc2)C=CC1=O`, for which the fold potentiation was 1.63.

Consider `CC(=O)Nc1cccc(C(=O)OCC(=O)NCc2cc(C)c(O)c(C)c2)c1`, for which the fold potentiation is 0.956 (inactive). For the compound `O=c1c(/C=N/OCc2ccc(Cl)cc2Cl)c[nH]n1-c1cccc(Cl)n1`, the fold potentiation was 0.906 (inactive).

Regarding `Cc1csc2c(=O)sc(NC(=O)c3ccc(F)cc3Cl)nc12`, the fold potentiation is 1.08 (inactive).
